Measurements: ChEMBL document CHEMBL1201862, “PubChem BioAssay data set” (2004)
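Protocol summary: plate cells (96-well), add compound at 5 concentrations, incubate 48 h, interpolate endpoints linearly. Abbreviation: GI50, concentration required for 50% inhibition of growth.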 Activity calls are given as the source filed them. Cut-off read from the data, not from the text of the source: active = GI50 up to about 1.1 µM and inactive = higher.

How the values were obtained:
Test in all cases: growth of human tumour cells (NCI), 48 h
RXF 631 = test system: RXF 631
DMS-114 = test system: DMS-114
HOP-18 = test system: HOP-18
M19-MEL = test system: M19-MEL
DLD-1 = test system: DLD-1
XF498 = test system: XF498
DMS-273 = test system: DMS-273
SNB-78 = test system: SNB-78
BT-549 = test system: BT-549

SMILES | GI50 (RXF 631) | GI50 (DMS-114) | GI50 (HOP-18) | GI50 (M19-MEL) | GI50 (DLD-1) | GI50 (XF498) | GI50 (DMS-273) | GI50 (SNB-78) | GI50 (BT-549)
CCCCCCCCCCCC[N+]12CC[N+](CCN)(CC1)CC2 | > 100 µM (inactive) | 34.1 µM (inactive) | 75.3 µM (inactive) | > 100 µM (inactive) | 82.8 µM (inactive) | > 100 µM (inactive) | 14.8 µM (inactive) | 77.8 µM (inactive) | –
CN(C)CCNC(=O)c1ccc(C(=O)NCCN(C)C)c2nc3ccccc3cc12 | 1 µM (active) | 0.553 µM (active) | 1.95 µM (inactive) | 0.8 µM (active) | 0.516 µM (active) | – | 0.538 µM (active) | 1.05 µM (active) | –
NCCCCCS(=O)(=O)O | > 100 µM (inactive) | > 100 µM (inactive) | > 100 µM (inactive) | > 100 µM (inactive) | > 100 µM (inactive) | – | > 100 µM (inactive) | > 100 µM (inactive) | –
Cc1ccc(NCC(=O)N2CC(=O)Nc3ccccc32)cc1 | – | > 100 µM (inactive) | > 100 µM (inactive) | > 100 µM (inactive) | > 100 µM (inactive) | 75.7 µM (inactive) | > 100 µM (inactive) | > 100 µM (inactive) | –
CCCCN(CCCC)C(=O)C(=O)C(C(=O)C(=O)OC)c1nc2ccccc2o1 (configuration not stated) | 79.3 µM (inactive) | 54 µM (inactive) | > 100 µM (inactive) | > 100 µM (inactive) | 53.8 µM (inactive) | 64.3 µM (inactive) | > 100 µM (inactive) | > 100 µM (inactive) | –
C/N=C(\NC(=S)N(C)C)N(C)C | > 100 µM (inactive) | > 100 µM (inactive) | > 100 µM (inactive) | > 100 µM (inactive) | > 100 µM (inactive) | > 100 µM (inactive) | > 100 µM (inactive) | > 100 µM (inactive) | –
COC(=O)c1cc(O)ccc1O [METHYL 2,5-DIHYDROXYBENZOATE] | > 100 µM (inactive) | > 100 µM (inactive) | – | > 100 µM (inactive) | – | > 100 µM (inactive) | > 100 µM (inactive) | > 100 µM (inactive) | –
CCOc1ccc(/C=C/c2cc(OC)c(OC)c(OC)c2)cc1 | 0.879 µM (active) | 1.36 µM (inactive) | > 75.2 µM (inactive) | 3.03 µM (inactive) | 1.9 µM (inactive) | 4.4 µM (inactive) | 0.548 µM (active) | 0.341 µM (active) | –
O=C1/C(=C/c2ccc(C(=O)O)cc2)CNC/C1=C\c1ccc(C(=O)O)cc1 | > 100 µM (inactive) | > 100 µM (inactive) | > 100 µM (inactive) | > 100 µM (inactive) | > 100 µM (inactive) | > 100 µM (inactive) | > 100 µM (inactive) | > 100 µM (inactive) | –
COC1=CC(=O)C2C(C1=O)C(c1ccc(OC)c(OC)c1)[C@H]2C (some centres not stated) | 16.4 µM (inactive) | 19.5 µM (inactive) | 20.7 µM (inactive) | 20.8 µM (inactive) | 17.1 µM (inactive) | 16.2 µM (inactive) | 23.7 µM (inactive) | > 100 µM (inactive) | –
O=C1c2ccccc2C2(O)Nc3cc(O)ccc3C12O (configuration not stated) | > 100 µM (inactive) | > 100 µM (inactive) | > 100 µM (inactive) | – | > 100 µM (inactive) | – | > 100 µM (inactive) | > 100 µM (inactive) | –
C1=CC=C2NCCCCCCC/N=C3/C=CC=CC=C3NCCCCCCC/N=C\2C=C1 | 13 µM (inactive) | – | – | > 100 µM (inactive) | 49.4 µM (inactive) | > 100 µM (inactive) | 19.1 µM (inactive) | – | –
CCCCN(CCCC)CCCCNc1c(C)cnc2cc(Cl)ccc12 | 13.7 µM (inactive) | 15.9 µM (inactive) | 23 µM (inactive) | 32.5 µM (inactive) | – | 14.4 µM (inactive) | – | 55.3 µM (inactive) | –
O=C1c2ccccc2C(=O)c2c1ccc1conc21 | 2.85 µM (inactive) | 1.83 µM (inactive) | 13.4 µM (inactive) | 1.32 µM (inactive) | 2.55 µM (inactive) | – | 3.44 µM (inactive) | 2.84 µM (inactive) | 1.91 µM (inactive)
N#CCCN(CCC#N)c1ccc(/C=C2\N=C(CN3C(=O)c4ccccc4C3=O)OC2=O)cc1 | > 100 µM (inactive) | > 100 µM (inactive) | – | > 100 µM (inactive) | – | > 100 µM (inactive) | > 100 µM (inactive) | – | –
Cc1cc(C)nc(NS(=O)(=O)c2ccc(Nc3c4ccc(Cl)cc4nc4c(C(=O)NCCN(C)C)cccc34)cc2)n1 | > 100 µM (inactive) | > 100 µM (inactive) | – | > 100 µM (inactive) | > 100 µM (inactive) | > 100 µM (inactive) | > 100 µM (inactive) | > 100 µM (inactive) | –
